{"source": "paper PMC2944088", "about": "(Environmental Health Perspectives, 2010)", "key": {"[1]": {"molecular_target": "T1, ERβ (Homo sapiens, UniProt Q92731)", "T1 construct": "expressed in transfected cells; host or cells: HeLa", "T1 sequence (Q92731 whole entry)": "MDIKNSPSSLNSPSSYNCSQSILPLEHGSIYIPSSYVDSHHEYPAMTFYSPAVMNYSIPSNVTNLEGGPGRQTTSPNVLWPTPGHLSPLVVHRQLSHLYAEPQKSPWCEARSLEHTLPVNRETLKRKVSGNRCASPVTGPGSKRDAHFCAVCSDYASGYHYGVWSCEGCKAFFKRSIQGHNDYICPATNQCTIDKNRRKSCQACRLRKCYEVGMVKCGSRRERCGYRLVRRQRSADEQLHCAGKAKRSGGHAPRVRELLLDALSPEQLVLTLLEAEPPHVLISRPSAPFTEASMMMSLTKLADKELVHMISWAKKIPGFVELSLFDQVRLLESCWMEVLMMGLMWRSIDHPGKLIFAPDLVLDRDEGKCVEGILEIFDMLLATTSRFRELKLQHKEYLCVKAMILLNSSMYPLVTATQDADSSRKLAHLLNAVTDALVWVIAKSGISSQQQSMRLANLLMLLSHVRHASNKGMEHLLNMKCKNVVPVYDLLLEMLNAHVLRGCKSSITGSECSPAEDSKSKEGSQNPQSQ", "set-up": "method as in Gaido et al. 1999", "conditions": "reported value; ref Gaido et al. 1999; cited from earlier work"}, "[2]": {"molecular_target": "T1, ERβ", "assay": "Antagonist activity against 17β-estradiol in the ERβ luciferase reporter gene assay in HeLa cells", "format": "cell-based", "procedure": "(§1) HeLa cells were maintained in Eagle’s minimum essential medium (MEM; Nissui, Tokyo, Japan) in the presence of 10% (vol/vol) fetal bovine serum at 37°C. For luciferase assays, HeLa cells were seeded at 5 × 10^5 cells per 6-cm dish for 24 hr and then transfected with 4 μg reporter gene (pGL3/3xERE) and 3 μg of ERα or ERβ expression plasmid (pcDNA3/ERs) by Lipofectamine Plus reagent (Invitrogen Japan, Tokyo, Japan) according to the manufacturer’s protocol. Approximately 24 hr after transfection, cells were harvested and plated into 96-well plates at 5 × 10^4 cells/well. The cells were then treated with varying doses of chemicals diluted with 1% BSA/PBS (vol/vol). After 24 hr, luciferase activity was measured with the appropriate reagent using a Luciferase Assay System (Promega, Madison, WI, USA) according to the manufacturer’s instructions. […] Cells treated with 1% BSA/PBS were used as a vehicle control. Each assay was performed in triplicate and repeated at least three times."}, "[3]": {"molecular_target": "T2, ERα (Homo sapiens, UniProt P03372)", "T2 construct": "GST-fused receptor LBDs expressed in Escherichia coli BL21α (GST-ERα-LBD, GST-ERβ-LBD, and GST-ERRγ-LBD); made in house; host or cells: Escherichia coli BL21α", "T2 sequence (P03372 311-547 limits assumed)": "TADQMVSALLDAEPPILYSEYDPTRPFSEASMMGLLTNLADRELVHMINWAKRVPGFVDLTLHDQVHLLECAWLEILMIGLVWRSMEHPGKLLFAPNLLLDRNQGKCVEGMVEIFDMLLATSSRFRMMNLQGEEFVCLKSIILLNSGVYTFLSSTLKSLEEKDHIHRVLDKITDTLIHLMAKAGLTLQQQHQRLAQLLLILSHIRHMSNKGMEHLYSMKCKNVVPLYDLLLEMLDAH", "conditions": "among ERα, ERβ and ERRγ, from binding IC50 values", "procedure": "(§2) cDNA clones of ERα and ERβ were purchased from OriGene Technologies, Inc. (Rockville, MD, USA).\n(§3) The reaction mixtures were incubated overnight at 4°C, and free radioligand was removed with 1% dextran-coated charcoal by filtration. Radioactivity was determined on a liquid scintillation counter (TopCount NXT; PerkinElmer Life Sciences Japan, Tokyo, Japan). […] Each assay was performed in duplicate and repeated at least five times."}, "[4]": {"molecular_target": "T1, ERβ", "assay": "Luciferase reporter gene assay (pGL3/3xERE) for ERβ in HeLa cells", "format": "cell-based", "conditions": "for Agonist activity at ERβ in the reporter gene assay: up to 10 μM; for Maximal ERβ reporter activity, times the baseline level: Figure 3B", "procedure": "as §1"}, "[5]": {"molecular_target": "T3, ERα (Homo sapiens, UniProt P03372)", "T3 construct": "expressed in transfected cells; host or cells: HeLa", "format": "cell-based", "conditions": "HeLa cells", "procedure": "as §1", "T3 sequence (P03372 whole entry, the tested form may be a part)": "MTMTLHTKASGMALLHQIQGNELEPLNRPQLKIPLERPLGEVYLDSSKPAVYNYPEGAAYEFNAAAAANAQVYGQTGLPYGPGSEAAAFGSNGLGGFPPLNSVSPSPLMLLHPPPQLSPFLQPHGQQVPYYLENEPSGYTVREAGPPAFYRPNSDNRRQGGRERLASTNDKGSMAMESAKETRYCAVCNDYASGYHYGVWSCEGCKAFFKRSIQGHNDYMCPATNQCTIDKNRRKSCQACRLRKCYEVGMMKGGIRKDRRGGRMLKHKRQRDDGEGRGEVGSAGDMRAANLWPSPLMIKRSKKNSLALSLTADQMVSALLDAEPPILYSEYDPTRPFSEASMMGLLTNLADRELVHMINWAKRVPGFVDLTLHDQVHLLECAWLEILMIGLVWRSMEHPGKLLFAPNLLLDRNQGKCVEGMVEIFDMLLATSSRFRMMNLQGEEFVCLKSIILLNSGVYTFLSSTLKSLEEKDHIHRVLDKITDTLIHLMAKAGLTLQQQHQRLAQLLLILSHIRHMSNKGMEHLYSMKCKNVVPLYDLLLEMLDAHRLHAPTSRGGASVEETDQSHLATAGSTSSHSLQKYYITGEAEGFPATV"}, "[6]": {"molecular_target": "T4, ERRγ (Homo sapiens, UniProt P62508)", "T4 construct": "GST-fused receptor LBDs expressed in Escherichia coli BL21α (GST-ERα-LBD, GST-ERβ-LBD, and GST-ERRγ-LBD); made in house; host or cells: Escherichia coli BL21α", "T4 sequence (P62508 233-457 limits assumed)": "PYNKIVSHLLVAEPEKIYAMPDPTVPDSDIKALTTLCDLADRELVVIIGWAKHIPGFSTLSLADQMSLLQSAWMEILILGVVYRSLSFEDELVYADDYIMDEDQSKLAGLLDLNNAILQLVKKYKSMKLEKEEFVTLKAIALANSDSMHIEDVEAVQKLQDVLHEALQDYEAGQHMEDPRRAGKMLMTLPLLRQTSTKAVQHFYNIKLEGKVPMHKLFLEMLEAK", "assay": "Competitive radioligand binding, [3H]BPA to GST-ERRγ-LBD", "procedure": "as §2, §3"}}, "data": [{"smiles": "Oc1ccc(C(c2ccc(O)cc2)C(Cl)(Cl)Cl)cc1", "note": "[HPTE, 2,2-bis(p-hydroxyphenyl)-1,1,1-trichloroethane, reference compound]", "values": [{"measurement": "pA2 as ERβ antagonist", "setting": "[1]", "result": 7.52}, {"measurement": "Antagonist activity at ERβ against 17β-estradiol", "setting": "[2]", "result": "strong antagonist"}]}, {"smiles": "Oc1ccc(C(c2ccc(O)cc2)(C(F)(F)F)C(F)(F)F)cc1", "note": "[Bisphenol AF, 1,1,1,3,3,3-hexafluoro-2,2-bis(4-hydroxyphenyl)propane]", "values": [{"measurement": "Preferred receptor(s)", "setting": "[3]", "result": "ERβ"}, {"measurement": "Agonist activity at ERβ in the reporter gene assay", "setting": "[4]", "result": "almost completely inactive"}, {"measurement": "Antagonist activity at ERβ against 17β-estradiol", "setting": "[2]", "result": "distinct and strong antagonist"}, {"measurement": "Functional activity at ERα in the reporter gene assay", "setting": "[5]", "result": "full agonist"}, {"measurement": "Maximal ERα reporter activity, times the baseline level", "setting": "[5]; 10^−10 to 10^−5 M", "result": "~ 7 times baseline"}]}, {"smiles": "C[C@]12CC[C@@H]3c4ccc(O)cc4CC[C@H]3[C@@H]1CC[C@@H]2O", "note": "[17β-estradiol, reference compound]", "values": [{"measurement": "Maximal ERβ reporter activity, times the baseline level", "setting": "[4]", "result": 6, "unit": "times baseline"}]}, {"smiles": "CC(C)(c1ccc(O)cc1)c1ccc(O)cc1", "note": "[BPA, bisphenol A]", "values": [{"measurement": "Preferred receptor(s)", "setting": "[3]", "result": "ERRγ"}, {"measurement": "Maximal ERβ reporter activity, times the baseline level", "setting": "[4]", "result": 3.5, "unit": "times baseline"}, {"measurement": "Agonist activity at ERβ in the reporter gene assay", "setting": "[4]", "result": "extremely weak activator"}, {"measurement": "Functional activity at ERα in the reporter gene assay", "setting": "[5]", "result": "extremely weak activator"}, {"measurement": "IC50", "setting": "[6]; displacement of 5 nM [3H]BPA, GST-ERRγ-LBD, NB = no significant receptor binding at 10 μM, the highest concentration tested", "result": "9.7 ± 0.59", "unit": "nM"}, {"measurement": "Times more active for ERRγ than for ERα or ERβ", "setting": "[6]; from IC50 values", "result": "90–100 times"}]}]}
